Test results from ChEMBL document CHEMBL1201862, “PubChem BioAssay data set” (2004).
Active and inactive are the calls of the source.

How the values were obtained:
[1] = glucagon-like peptide-1 release potency in STC-1, concentration-response, half-maximal inhibitory concentration in the STC-1 line (AID 1117345); assay type: functional, cell-based
[2] = target: Apoptotic protease-activating factor 1 (Homo sapiens, UniProt O14727); assay type: functional
HEK293 [3] = assay: membrane integrity loss in HEK cells – cell-based, fluorescence, cytotoxicity control for IDE activator project, dose response (AID 588440); assay type: functional; conditions: Homo sapiens;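 note: cytotoxicity by LDH release measuring loss of membrane integrity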
Insulin-degrading enzyme [4] = target: T1, Insulin-degrading enzyme (Homo sapiens, UniProt P14735); assay: cellular IDE activation of Abeta substrate cleavage – fluorescence polarization, HEK cells, dose response (AID 588439); assay type: functional, cell-based
T1 sequence (P14735 whole entry): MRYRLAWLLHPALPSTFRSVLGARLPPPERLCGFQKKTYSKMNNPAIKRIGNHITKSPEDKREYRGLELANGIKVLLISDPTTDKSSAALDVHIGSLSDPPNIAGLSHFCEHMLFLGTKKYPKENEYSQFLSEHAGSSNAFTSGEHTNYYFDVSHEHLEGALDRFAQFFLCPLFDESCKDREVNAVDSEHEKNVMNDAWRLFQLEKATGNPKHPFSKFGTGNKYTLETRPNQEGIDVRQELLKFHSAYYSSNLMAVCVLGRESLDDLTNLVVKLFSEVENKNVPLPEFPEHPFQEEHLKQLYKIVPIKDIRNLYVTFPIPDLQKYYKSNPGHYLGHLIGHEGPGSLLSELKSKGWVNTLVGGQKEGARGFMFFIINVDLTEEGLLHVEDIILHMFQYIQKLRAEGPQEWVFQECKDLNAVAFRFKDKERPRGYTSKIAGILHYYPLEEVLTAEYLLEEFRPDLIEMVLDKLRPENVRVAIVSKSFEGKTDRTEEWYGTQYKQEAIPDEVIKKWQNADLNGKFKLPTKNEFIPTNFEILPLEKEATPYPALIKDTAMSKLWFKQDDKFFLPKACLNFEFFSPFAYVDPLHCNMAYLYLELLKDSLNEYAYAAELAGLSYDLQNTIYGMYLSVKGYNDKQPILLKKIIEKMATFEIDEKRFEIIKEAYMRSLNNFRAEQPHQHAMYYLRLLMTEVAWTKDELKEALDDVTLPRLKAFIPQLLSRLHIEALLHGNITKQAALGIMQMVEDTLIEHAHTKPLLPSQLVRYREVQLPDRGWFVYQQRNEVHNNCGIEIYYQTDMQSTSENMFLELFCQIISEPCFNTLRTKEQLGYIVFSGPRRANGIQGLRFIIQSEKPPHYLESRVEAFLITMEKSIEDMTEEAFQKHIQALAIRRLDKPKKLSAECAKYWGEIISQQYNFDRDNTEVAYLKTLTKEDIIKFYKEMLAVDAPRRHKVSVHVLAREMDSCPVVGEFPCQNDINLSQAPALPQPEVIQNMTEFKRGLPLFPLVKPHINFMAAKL

[5] = target: Dual specificity tyrosine-phosphorylation-regulated kinase 1A (Rattus norvegicus, UniProt Q63470); assay type: biochemical, Homo sapiens
[6] = target: T2, Ubiquitin-conjugating enzyme E2 N (Homo sapiens, UniProt P61088); assay type: functional
T2 sequence (P61088 whole entry): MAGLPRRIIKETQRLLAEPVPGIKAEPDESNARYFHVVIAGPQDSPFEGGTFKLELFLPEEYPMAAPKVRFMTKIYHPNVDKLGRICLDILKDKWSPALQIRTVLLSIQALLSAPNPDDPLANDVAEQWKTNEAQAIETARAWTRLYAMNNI

[7] = rise of 2N DNA cells, HeLa – IC50, dose response (AID 1117349); assay type: functional, cell-based
Large T antigen = Large T antigen (Simian virus 40, UniProt P03070); assay type: functional, Betapolyomavirus macacae;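 note: Confirmatory-stage PubChem screen for compounds that inhibit SV40 T antigen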
Sequence of Large T antigen (P03070 whole entry): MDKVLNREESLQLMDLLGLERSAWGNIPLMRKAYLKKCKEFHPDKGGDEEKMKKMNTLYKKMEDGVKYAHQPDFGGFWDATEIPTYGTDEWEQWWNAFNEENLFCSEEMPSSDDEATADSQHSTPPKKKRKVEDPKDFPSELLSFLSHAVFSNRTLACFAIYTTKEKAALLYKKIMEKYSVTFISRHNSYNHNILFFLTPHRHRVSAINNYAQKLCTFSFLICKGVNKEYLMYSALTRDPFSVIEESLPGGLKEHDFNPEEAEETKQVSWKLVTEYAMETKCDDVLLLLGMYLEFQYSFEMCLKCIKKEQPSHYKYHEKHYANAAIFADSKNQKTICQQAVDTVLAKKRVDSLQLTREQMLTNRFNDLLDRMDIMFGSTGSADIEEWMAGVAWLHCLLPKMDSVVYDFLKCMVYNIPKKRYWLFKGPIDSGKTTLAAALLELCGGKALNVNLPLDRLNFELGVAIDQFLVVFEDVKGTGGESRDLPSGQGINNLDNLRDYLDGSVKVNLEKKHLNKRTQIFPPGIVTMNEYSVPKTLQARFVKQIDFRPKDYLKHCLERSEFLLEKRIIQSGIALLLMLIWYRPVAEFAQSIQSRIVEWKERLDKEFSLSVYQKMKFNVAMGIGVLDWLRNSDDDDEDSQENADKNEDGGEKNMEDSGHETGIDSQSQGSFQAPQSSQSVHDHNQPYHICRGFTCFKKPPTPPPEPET

HEK293 [8] = assay: optical interference in Abeta FP readout, dose response, artefact control for IDE activator project, biochemical, fluorescence polarization (AID 588442); assay type: functional, cell-based; conditions: Homo sapiens
[9] = target: Heat shock protein HSP 90-alpha (Homo sapiens, UniProt P07900); assay type: functional, organism-based
Insulin-degrading enzyme [10] = target: T1, Insulin-degrading enzyme; assay: recombinant IDE activation, cell-free – biochemical, fluorescence polarization, counter-screen for IDE activator project, dose response (AID 588681)
[11] = target: T2, Ubiquitin-conjugating enzyme E2 N; assay type: functional; remark: listed apart in the source
[12] = rise of 4N DNA cells, HeLa – IC50, dose response (AID 1117351); assay type: functional, cell-based
[13] = Potency on glucagon-like peptide 1 release, dose-response in NCI-H716 cell line, half maximal inhibitory concentration (AID 1117344); assay type: functional, cell-based
Bcl-2-related protein A1 = target: T3, Bcl-2-related protein A1 (Mus musculus, UniProt Q07440); assay type: functional;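 note: confirmatory dose–response counterscreen on Bfl-1, used to check hits from a UBC13 polyubiquitin inhibitor campaign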
T3 sequence (Q07440 whole entry): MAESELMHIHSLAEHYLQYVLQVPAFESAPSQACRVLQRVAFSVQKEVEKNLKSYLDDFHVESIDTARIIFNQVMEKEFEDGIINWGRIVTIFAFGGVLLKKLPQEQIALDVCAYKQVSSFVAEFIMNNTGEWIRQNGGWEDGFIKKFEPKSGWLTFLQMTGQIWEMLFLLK

INS1 = assay: INS-1E survival protection against cytokine death – cell-based, luminescence, retest, dose response (AID 449756); assay type: functional; conditions: Rattus norvegicus;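 note: cell death triggered by IL-1 beta plus TNF-alpha plus IFN-gamma mixture; protective hits raise ATP signal compared with cytokine alone wells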
Beta Lactamase = Beta Lactamase (Pseudomonas aeruginosa, UniProt Q932Y6); assay: BLA reporter interference, concentration series – BLA reporter cells, FRET fluorescence, artefact control for TLR9-MyD88 binding inhibitor project, dose response (AID 588341); assay type: cell-based;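 note: cell based assay in CHO-K1 cells stably expressing beta-lactamase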
Sequence of Beta Lactamase (Q932Y6 whole entry): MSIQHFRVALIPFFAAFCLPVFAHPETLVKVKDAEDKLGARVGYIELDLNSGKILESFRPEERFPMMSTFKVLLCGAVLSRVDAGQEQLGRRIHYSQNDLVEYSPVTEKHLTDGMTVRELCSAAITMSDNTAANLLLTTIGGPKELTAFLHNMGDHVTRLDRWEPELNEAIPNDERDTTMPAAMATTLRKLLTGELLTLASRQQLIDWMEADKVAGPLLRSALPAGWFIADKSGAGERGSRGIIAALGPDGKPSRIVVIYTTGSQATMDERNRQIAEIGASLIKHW

[14] = target: DNA damage-inducible transcript 3 protein (Mus musculus, UniProt P35639); assay type: functional, Cricetulus griseus
Sequence of DNA damage-inducible transcript 3 protein (P35639 whole entry): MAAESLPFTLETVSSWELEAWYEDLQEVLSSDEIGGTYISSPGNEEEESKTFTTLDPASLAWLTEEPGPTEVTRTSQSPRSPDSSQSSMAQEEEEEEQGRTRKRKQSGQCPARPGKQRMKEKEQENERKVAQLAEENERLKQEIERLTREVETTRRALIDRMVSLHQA

[15] = reduction of Shn3 3'UTR-driven luciferase in osteoblasts – cell-based, Clone20 osteoblasts, firefly luciferase, cherry-picked, dose response (AID 624132); assay type: functional;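 note: firefly luciferase luminescence from reporter carrying the Shn3 3'UTR in osteoblasts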
[16] = target: Sphingosine 1-phosphate receptor 4 (Homo sapiens, UniProt O95977); assay: Fluorescence dose response cell-based high throughput screening assay for antagonists of the Sphingosine 1-Phosphate Receptor 4 (S1P4). [Related pubchem assays: 1524 (Confirmation in triplicates.), 1510 (Primary screen.)]; assay type: functional
Sequence of Sphingosine 1-phosphate receptor 4 (O95977 whole entry): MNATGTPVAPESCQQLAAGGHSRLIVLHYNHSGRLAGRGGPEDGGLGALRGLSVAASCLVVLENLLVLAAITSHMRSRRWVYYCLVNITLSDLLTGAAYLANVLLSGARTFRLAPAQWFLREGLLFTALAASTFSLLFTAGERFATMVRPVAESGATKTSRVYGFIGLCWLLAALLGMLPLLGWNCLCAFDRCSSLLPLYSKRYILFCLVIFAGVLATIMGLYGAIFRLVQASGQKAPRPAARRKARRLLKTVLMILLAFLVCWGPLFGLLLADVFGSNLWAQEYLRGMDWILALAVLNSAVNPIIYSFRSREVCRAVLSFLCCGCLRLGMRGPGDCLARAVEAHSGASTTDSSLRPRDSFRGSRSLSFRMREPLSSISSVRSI

[17] = microbe, parasite or virus in culture; assay type: functional; conditions: Mycobacterium tuberculosis
[18] = Trypanosoma cruzi growth suppression in host cells – NIH3T3 host cells, beta-gal luminescence, confirmation (AID 2044); assay type: functional, cell-based;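 note: intracellular parasites grown in NIH/3T3 mouse fibroblasts as host cells; luminescent beta-galactosidase reporter signal from transgenic T. cruzi replicating inside host cells; inhibitors lower the luminescence signal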
[19] = target: Sphingosine 1-phosphate receptor 1 (Homo sapiens, UniProt P21453); assay type: functional;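 note: Tango beta-arrestin reporter U2OS cells stimulated with S1P near its EC80; inhibitor potency meaning antagonism of receptor activation by the natural agonist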
Sequence of Sphingosine 1-phosphate receptor 1 (P21453 whole entry): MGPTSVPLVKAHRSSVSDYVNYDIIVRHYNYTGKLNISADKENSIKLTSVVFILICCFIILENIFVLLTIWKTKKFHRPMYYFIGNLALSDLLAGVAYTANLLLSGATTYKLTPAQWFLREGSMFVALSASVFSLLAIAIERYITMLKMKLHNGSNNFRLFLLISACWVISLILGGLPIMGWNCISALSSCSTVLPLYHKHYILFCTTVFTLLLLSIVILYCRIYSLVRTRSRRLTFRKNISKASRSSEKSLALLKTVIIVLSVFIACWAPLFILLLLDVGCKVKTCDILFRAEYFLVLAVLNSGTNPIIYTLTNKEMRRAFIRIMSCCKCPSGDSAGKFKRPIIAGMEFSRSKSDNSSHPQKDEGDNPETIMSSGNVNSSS

[20] = viability loss of HPDE-C7K cells – cell-based, fluorescence, HTS, primary screen (AID 431); assay type: functional; conditions: Homo sapiens
[21] = NIH3T3 cell viability loss – ATP luminescence, mouse fibroblasts, counter-screen, dose response (AID 2010); assay type: functional, cell-based;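 note: cells exposed to compound for about 90 hours before reading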
[22] = loss of viability in HepG2 cells – cell-based, CellTiter-Glo, cherry-picked, cytotoxicity control for Shn3 inhibitor project, dose response (AID 624134); assay type: functional
[23] = non-specific 3'UTR reporter inhibition in Clone20-Shn3RL – cell-based, Renilla luciferase, cherry-picked, counter-screen for Shn3 inhibitor project, dose response (AID 624133); assay type: functional
CHO = CHO cell viability loss, potency – luminescence, cytotoxicity control for TLR9-MyD88 binding inhibitor project, dose response (AID 588339); assay type: functional, cell-based, hamster; conditions: Cricetulus griseus;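 note: CHO cells stably coexpressing TLR9 and MyD88 fusions from primary screen; compound exposure lasted 48 hours before viability readout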
Protein RecA = target: T4, Protein RecA (Mycobacterium tuberculosis, UniProt P9WHJ3); assay: Fluorescence Cell-Free Homogeneous Dose Retest to Identify Inhibitors of RecA-Intein Splicing Activity. [Related pubchem assays (depositor defined):AID2097, AID2223, AID489010, AID492950]; assay type: functional
T4 sequence (P9WHJ3 whole entry): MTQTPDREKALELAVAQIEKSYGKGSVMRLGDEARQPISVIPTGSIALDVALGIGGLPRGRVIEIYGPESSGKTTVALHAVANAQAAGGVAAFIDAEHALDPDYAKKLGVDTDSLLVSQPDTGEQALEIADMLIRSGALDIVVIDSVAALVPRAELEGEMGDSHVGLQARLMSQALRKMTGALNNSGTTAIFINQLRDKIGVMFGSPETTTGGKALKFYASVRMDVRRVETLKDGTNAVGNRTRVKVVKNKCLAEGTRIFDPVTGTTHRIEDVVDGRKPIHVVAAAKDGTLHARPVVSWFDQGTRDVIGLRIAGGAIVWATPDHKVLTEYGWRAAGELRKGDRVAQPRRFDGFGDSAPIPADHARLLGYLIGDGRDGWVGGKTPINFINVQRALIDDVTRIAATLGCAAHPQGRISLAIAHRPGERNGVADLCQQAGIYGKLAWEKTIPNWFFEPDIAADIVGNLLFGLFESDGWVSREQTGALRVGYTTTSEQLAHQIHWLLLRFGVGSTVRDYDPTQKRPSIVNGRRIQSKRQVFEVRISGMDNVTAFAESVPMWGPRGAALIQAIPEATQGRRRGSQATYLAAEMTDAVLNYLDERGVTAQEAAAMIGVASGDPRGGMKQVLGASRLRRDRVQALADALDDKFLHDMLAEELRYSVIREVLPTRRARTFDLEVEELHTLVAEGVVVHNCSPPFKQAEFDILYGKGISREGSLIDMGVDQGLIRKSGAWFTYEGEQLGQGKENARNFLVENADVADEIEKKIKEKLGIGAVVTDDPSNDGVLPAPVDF

[24] = target: T5, Replicative DNA helicase DnaB (Mycobacterium tuberculosis, UniProt P9WMR3); assay: DnaB intein splicing inhibitors, dose response, biochemical, cell-free fluorescence (AID 449749); assay type: functional
T5 sequence (P9WMR3 whole entry): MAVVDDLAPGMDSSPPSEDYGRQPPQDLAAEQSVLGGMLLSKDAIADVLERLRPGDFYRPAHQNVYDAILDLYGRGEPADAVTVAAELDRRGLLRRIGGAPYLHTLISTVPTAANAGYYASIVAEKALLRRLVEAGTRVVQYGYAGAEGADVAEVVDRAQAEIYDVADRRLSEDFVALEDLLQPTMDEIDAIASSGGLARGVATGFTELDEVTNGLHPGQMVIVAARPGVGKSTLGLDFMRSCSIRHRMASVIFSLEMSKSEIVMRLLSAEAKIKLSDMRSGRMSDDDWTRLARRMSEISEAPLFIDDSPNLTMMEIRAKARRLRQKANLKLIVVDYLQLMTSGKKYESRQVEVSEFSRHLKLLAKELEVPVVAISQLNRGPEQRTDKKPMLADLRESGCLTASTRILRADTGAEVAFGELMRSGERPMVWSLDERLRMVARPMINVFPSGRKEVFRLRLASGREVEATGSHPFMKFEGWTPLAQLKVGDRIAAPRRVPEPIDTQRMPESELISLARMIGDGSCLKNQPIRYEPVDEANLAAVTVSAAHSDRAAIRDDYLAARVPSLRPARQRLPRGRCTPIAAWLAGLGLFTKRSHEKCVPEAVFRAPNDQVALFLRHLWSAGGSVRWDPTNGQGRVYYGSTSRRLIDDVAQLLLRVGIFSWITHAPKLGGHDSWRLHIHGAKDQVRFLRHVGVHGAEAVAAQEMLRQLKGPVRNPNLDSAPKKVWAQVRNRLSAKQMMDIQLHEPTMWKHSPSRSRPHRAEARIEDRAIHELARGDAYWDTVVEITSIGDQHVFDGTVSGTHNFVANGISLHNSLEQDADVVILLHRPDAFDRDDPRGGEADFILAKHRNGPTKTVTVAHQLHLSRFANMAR

[25] = target: T6, Heat shock factor protein 1 (Mus musculus, UniProt P38532); assay: decrease of HSF1-responsive luciferase luminescence – cell-based, NIH3T3, dose retest, confirmation (AID 2382); assay type: functional;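 note: NIH3T3 fibroblasts with HSF1-driven luciferase reporter stressed by proteasome inhibitor MG132; luminescence from HSF1-driven luciferase expression after 8 hours of MG132 stress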
T6 sequence (P38532 whole entry): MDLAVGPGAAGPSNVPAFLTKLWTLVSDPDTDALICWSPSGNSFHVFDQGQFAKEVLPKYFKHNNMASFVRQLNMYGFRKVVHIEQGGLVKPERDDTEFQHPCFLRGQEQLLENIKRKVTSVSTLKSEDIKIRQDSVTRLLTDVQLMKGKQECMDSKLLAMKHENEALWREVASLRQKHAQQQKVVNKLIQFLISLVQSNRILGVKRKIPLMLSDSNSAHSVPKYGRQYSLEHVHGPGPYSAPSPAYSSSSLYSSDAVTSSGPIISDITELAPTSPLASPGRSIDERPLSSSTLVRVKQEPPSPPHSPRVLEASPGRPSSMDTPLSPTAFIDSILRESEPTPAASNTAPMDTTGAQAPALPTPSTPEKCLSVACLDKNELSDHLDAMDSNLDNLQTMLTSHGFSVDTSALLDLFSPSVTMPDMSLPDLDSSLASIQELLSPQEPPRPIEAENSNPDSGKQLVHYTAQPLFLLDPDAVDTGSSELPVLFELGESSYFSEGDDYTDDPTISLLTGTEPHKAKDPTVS

[26] = HPDE-C7 pancreatic duct cell viability loss – fluorescence, HTS (AID 430); assay type: functional, cell-based; conditions: Homo sapiens

Sequence of Apoptotic protease-activating factor 1 (O14727 whole entry): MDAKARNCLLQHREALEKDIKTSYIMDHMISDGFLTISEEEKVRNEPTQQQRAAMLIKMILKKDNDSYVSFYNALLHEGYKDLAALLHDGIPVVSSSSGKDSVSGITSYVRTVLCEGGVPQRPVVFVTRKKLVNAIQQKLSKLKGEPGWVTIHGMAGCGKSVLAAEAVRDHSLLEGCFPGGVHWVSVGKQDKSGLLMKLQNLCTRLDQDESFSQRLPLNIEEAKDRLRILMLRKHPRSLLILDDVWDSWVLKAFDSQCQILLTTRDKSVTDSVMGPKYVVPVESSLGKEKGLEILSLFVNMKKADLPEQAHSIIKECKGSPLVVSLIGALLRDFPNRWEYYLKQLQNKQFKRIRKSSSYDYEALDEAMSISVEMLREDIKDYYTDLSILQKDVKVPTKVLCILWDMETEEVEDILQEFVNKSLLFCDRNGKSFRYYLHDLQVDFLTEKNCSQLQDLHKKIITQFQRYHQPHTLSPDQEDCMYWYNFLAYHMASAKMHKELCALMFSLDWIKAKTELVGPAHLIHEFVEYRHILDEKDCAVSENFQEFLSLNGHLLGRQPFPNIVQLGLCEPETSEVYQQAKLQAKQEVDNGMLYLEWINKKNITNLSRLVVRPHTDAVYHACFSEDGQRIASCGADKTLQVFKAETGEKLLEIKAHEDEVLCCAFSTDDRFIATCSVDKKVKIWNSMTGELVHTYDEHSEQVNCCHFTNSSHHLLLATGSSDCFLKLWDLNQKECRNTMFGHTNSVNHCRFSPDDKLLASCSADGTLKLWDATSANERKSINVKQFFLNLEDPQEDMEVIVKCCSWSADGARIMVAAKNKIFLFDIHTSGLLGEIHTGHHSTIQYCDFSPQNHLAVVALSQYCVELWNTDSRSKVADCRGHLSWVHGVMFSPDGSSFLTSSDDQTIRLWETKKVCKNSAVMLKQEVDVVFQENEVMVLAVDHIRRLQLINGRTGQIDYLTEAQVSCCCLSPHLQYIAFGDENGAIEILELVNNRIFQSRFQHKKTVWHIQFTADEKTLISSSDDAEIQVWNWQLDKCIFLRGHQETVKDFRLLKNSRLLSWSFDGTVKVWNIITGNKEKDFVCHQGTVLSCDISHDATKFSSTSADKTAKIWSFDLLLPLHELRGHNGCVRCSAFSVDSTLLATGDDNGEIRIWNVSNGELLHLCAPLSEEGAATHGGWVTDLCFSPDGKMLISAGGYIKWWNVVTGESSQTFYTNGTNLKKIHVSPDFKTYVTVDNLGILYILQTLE

SMILES: CCCCCCCCCCCCCCCC[N+](C)(C)CCN(Cc1ccc(OC)cc1)c1ncccn1 [THONZONIUM BROMIDE]
- IC50 [1]: > 40 µM (inactive)
- IC50 [2]: 8.37 µM (active)
- IC50 (HEK293 [3]): 5.21 µM (active)
- EC50 (Insulin-degrading enzyme [4]): > 54.7 µM (inactive)
- AC50 [5]: 9.42 µM (active)
- IC50 [6]: 2.99 µM (active)
- IC50 [7]: > 10 µM (inactive)
- IC50 (Large T antigen): 15.4 µM (active)
- EC50 (HEK293 [8]): > 55.9 µM (inactive)
- AC50 [9]: 6.06 µM (active)
- EC50 (Insulin-degrading enzyme [10]): 53.3 µM (inactive)
- IC50 [11]: 2.86 µM (active)
- IC50 [12]: > 10 µM (inactive)
- IC50 [13]: 17.8 µM (inactive)
- IC50 (Bcl-2-related protein A1): 6.44 µM (active)
- AC50 (INS1): 2.54 µM (active)

SMILES: CS(=O)(=O)c1nc(-c2ccccc2)cc(C(F)(F)F)n1
- IC50 (Beta Lactamase): 29.1 µM (inactive)
- Absolute IC50 (CHOP) [14]: 10 µM
- AC50 [15]: 1.53 µM (active)
- IC50 [16]: 1.09 µM (active)
- CC50 [17]: 30.7 µM (active)
- EC50 [18]: 2.21 µM (active)
- IC50 [19]: 16.7 µM (not active)
- EC50 [20]: 4.8 µM (active)
- EC50 [21]: 2.55 µM (active)
- AC50 [22]: 16 µM (active)
- AC50 [23]: 7.07 µM (active)
- IC50 (CHO): 3.23 µM (active)
- EC50 (Protein RecA): 5.53 µM (active)
- AC50 [24]: 4.91 µM (active)
- EC50 [25]: 8.84 µM (inconclusive)
- EC50 [26]: 4.36 µM (active)
